Counter-ions that a name gives are not always drawn.
System: blood and tissues
Assay: Transcriptional profiling, acute (single) dosing, EAE mice: blood and tissues
Assay type: in vivo
Source text: EAE induction is generally performed by immunization with brain extracts, CNS proteins (such as myelin basic protein), or peptides from such protein emulsified in an adjuvant such as complete Freund's adjuvant, e.g., as described in Linker et al., Brain. 2011 March 134(Pt3): 678-92. […] FIG. 17 depicts exemplary immunophenotyping panels used to analyze various immune cell populations (e.g., T cells, T regulatory cells, NK cells, B cells, myeloid cells). […] The number of independent mice whose tissues were harvested for transcript profiling studies and whose data passed QC is shown in TABLE 15. Animals were exposed to CO2 and whole blood collected via cardiac puncture. Two 100 μl aliquots of whole blood were collected in 1.5 mL microcentrifuge tubes and snap frozen in liquid nitrogen. Peripheral (liver, spleen, kidney and jejunum) and CNS brain (cerebellum, hippocampus, striatum and cortex) tissues were harvested and snap frozen in liquid nitrogen, with special care taken to collect tissues of similar size and from the same location. All samples were stored at -80° C. until RNA extraction was conducted. For RNA preparation, frozen tissues were placed in 2 mL RNAse-free 96-well blocks with 1.5 mL QIAzol Lysis Reagent (QIAgen) and a 3.2 mm stainless steel bead (BioSpec Products, Bartlesville, Okla.). Tissues were disrupted for four cycles of 45 seconds in a Mini-Beadbeater (Biospec Products). RNA was extracted in chloroform and the aqueous phase was mixed with an equal volume of 70% ethanol. Extracted RNA was applied to RNeasy 96 plates and purified by the spin method according to the manufacturer's protocol (RNeasy 96 Universal Tissue Protocol, QIAgen, Hilden Germany). 50 ul of snap frozen mouse blood was re-suspended in lysis buffer with proteinase K and arrayed into deep-well plates for automated RNA extraction. RNA extractions were completed on […] (Beckman Coulter, Indianapolis, Ind.) using Agencourt RNAdvance Blood kit (Part number A35604) according to the manufacturer's specifications. RNA integrity was assessed using the HT RNA reagent kit (Part number 760410, Caliper Life Sciences, Hopkinton, Mass.) using a LabChip GX (PerkinElmer, Waltham, Mass.). RNA samples with a RQS score of >8.0 were considered high quality for downstream microarray processing. […] Washing and staining of the hybridized arrays were completed as described in the GeneChip Expression analysis technical manual for HT plate arrays using the Genechip® Array Station (Affymetrix, Santa Clara, Calif.) with modifications as described in […] et al. The processed GeneChip® plate arrays were scanned using GeneTitan scanner (Affymetrix, Santa Clara, Calif.). Affymetrix scans were subject to quality control (QC) measures. These tests included a visual inspection of the distribution of raw signal intensities and an assessment of RNA degradation, relative log expression (RLE), and normalized unscaled standard error (NUSE). All sample scans that passed these QC metrics were included in the analysis. […] Nucleic Acids Res 2003; 31:e15; Li C, et al. Genome Biol 2001; 2:[…]0032). […] Stat Appl Genet Mol Biol 2004; 3:Article3). […] Springer Science+Business Media 2005). […] Generally, no distinct sample groupings were apparent from this analysis; however, in the following cohorts, differences in EAE severity across the mice were manifest in global gene expression patterns: An example of this animal grouping is shown in FIG. 33 for the spinal cord from the chronically-dosed 7 h EAE mice. […] Three distinct groups of mice result from unsupervised clustering, and these animal groups correlate with the cumulative EAE score. […] Subsequent analyses for the cohorts listed above only included those animals with the most severe EAE scores; however, for the cohorts 'Spinal Cord, Acute Dosing, 7 h' and 'Spleen, Acute Dosing, 12 h,' there were an insufficient number of mice in the different treatment groups to perform such a sub-analysis. […]

[1] = EAE, Acute Dosing, 90 mpk MMF-vs-Vehicle, 7 h after last dosing
[2] = EAE, Acute Dosing, 90 mpk MMF-vs-Vehicle, 12 h after last dosing
[3] = lymph node, 100MMF-vs-Veh, 12 h

For COC(=O)/C=C/C(=O)O [MMF, monomethyl fumarate], the “Number of differentially expressed genes identified: Brain” value [1] was 0, the “Number of differentially expressed genes identified: Cerebellum” value [1] was 1 and the “Number of differentially expressed genes identified: Lymph Node” value [1] was 6. The “Number of differentially expressed genes identified: Spleen” value [1] was 114, the “Number of differentially expressed genes identified: Whole blood” value [1] was 6 and the “Number of differentially expressed genes identified: Brain” value [2] was 0. For the same compound, the “Number of differentially expressed genes identified: Cerebellum” value [2] was 1, the “Number of differentially expressed genes identified: Lymph Node” value [2] was 4 and the “Number of differentially expressed genes identified: Spinal Cord” value [2] was 1. The “Number of differentially expressed genes identified: Whole blood” value [2] was 7, the “FC 5830436I19Rik 1437136_PM_at” value (cerebellum, 100MMF-vs-Veh, 12 h) was 1.87 and the “FC 1446570_PM_at” value (cerebellum, 100MMF-vs-Veh, 7 h) was 1.51. For the same compound, the “FC Aox1 (1419435_PM_at)” value (lymph node, 100MMF-vs-Veh, 7 h) was 2.17, the “FC F3 1417408_PM_at” value (lymph node, 100MMF-vs-Veh, 7 h) was 1.57 and the “FC Gclm 1439050_PM_at” value (lymph node, 100MMF-vs-Veh, 7 h) was 1.50. The “FC Nqo1 (1423627_PM_at)” value (lymph node, 100MMF-vs-Veh, 7 h) was 1.98, the “FC Srxn1 (1419942_PM_at)” value (lymph node, 100MMF-vs-Veh, 7 h) was 1.65 and the “FC Srxn1 (1426875_PM_s_at)” value (lymph node, 100MMF-vs-Veh, 7 h) was 1.61. For the same compound, the “FC 1446567_PM_at” value [3] was 1.74, the “FC 1457549_PM_at” value [3] was 1.67 and the “FC 4930453J04Rik 1454406_PM_at” value [3] was 1.76. The “FC 5830436I19Rik 1437136_PM_at” value [3] was 1.65, the “FC 1445562_PM_at” value (spinal cord, 100MMF-vs-Veh, 12 h) was 2.11 and the “FC 1190002H23Rik 1438511_PM_a_at” value (spleen, 100MMF-vs-Veh, 7 h) was 1.60. The “FC 1438259_PM_at” value (spleen, 100MMF-vs-Veh, 7 h) was 1.56, the “FC 1443364_PM_at” value (spleen, 100MMF-vs-Veh, 7 h) was 1.88 and the “FC 1443911_PM_at” value (spleen, 100MMF-vs-Veh, 7 h) was 1.54. The “FC 1444212_PM_at” value (spleen, 100MMF-vs-Veh, 7 h) was 1.54, the “FC 1446234_PM_at” value (spleen, 100MMF-vs-Veh, 7 h) was 1.50 and the “FC 1447706_PM_at” value (spleen, 100MMF-vs-Veh, 7 h) was 1.57. For the same compound, the “FC 1451626_PM_x_at” value (spleen, 100MMF-vs-Veh, 7 h) was 1.60, the “FC 1452426_PM_x_at” value (spleen, 100MMF-vs-Veh, 7 h) was 1.58 and the “FC 1458296_PM_at” value (spleen, 100MMF-vs-Veh, 7 h) was 1.79. The “FC 1458586_PM_at” value (spleen, 100MMF-vs-Veh, 7 h) was 1.50, the “FC 2410129H14Rik 1434664_PM_at” value (spleen, 100MMF-vs-Veh, 7 h) was 1.74 and the “FC 2410129H14Rik 1455052_PM_a_at” value (spleen, 100MMF-vs-Veh, 7 h) was 1.56. For the same compound, the “FC 2610021A01Rik 1438786_PM_a_at” value (spleen, 100MMF-vs-Veh, 7 h) was 1.55, the “FC 4732418C07Rik 1446425_PM_at” value (spleen, 100MMF-vs-Veh, 7 h) was 1.53 and the “FC 5730508B09Rik 1447100_PM_s_at” value (spleen, 100MMF-vs-Veh, 7 h) was 1.91. For the same compound, the “FC AI662270 1434067_PM_at” value (spleen, 100MMF-vs-Veh, 7 h) was 1.52, the “FC Abi1 1438506_PM_s_at” value (spleen, 100MMF-vs-Veh, 7 h) was 1.61 and the “FC Aco1 (1456728_PM_x_at)” value (spleen, 100MMF-vs-Veh, 7 h) was 1.69. For the same compound, the “FC Acp1 1422716_PM_a_at” value (spleen, 100MMF-vs-Veh, 7 h) was 1.80, the “FC Adk 1438292_PM_x_at” value (spleen, 100MMF-vs-Veh, 7 h) was 1.54 and the “FC Ampd3 1422573_PM_at” value (spleen, 100MMF-vs-Veh, 7 h) was 1.61. The “FC Apol9a /// Apol9b 1424518_PM_at” value (spleen, 100MMF-vs-Veh, 7 h) was 1.57, the “FC Arhgap21 1428369_PM_s_at” value (spleen, 100MMF-vs-Veh, 7 h) was 1.57 and the “FC Arl4a 1435092_PM_at” value (spleen, 100MMF-vs-Veh, 7 h) was 2.26. The “FC Arl6ip6 1424020_PM_at” value (spleen, 100MMF-vs-Veh, 7 h) was 1.52, the “FC B3galnt2 1454842_PM_a_at” value (spleen, 100MMF-vs-Veh, 7 h) was 1.51 and the “FC Birc6 1442959_PM_at” value (spleen, 100MMF-vs-Veh, 7 h) was 1.54. The “FC C79407 1434767_PM_at” value (spleen, 100MMF-vs-Veh, 7 h) was 1.95, the “FC C1d 1416886_PM_at” value (spleen, 100MMF-vs-Veh, 7 h) was 1.52 and the “FC C330027C09Rik 1449699_PM_s_at” value (spleen, 100MMF-vs-Veh, 7 h) was 1.59. The “FC Cat 1416429_PM_a_at” value (spleen, 100MMF-vs-Veh, 7 h) was 1.51, the “FC Ccl6 (1420249_PM_s_at)” value (spleen, 100MMF-vs-Veh, 7 h) was 1.57 and the “FC Cdyl 1418070_PM_at” value (spleen, 100MMF-vs-Veh, 7 h) was 1.73. The “FC Cenpa 1441864_PM_x_at” value (spleen, 100MMF-vs-Veh, 7 h) was 1.86, the “FC Chic2 1429050_PM_at” value (spleen, 100MMF-vs-Veh, 7 h) was 1.67 and the “FC Cno 1459783_PM_s_at” value (spleen, 100MMF-vs-Veh, 7 h) was 1.58. The “FC Cpt1a 1434866_PM_x_at” value (spleen, 100MMF-vs-Veh, 7 h) was 1.54, the “FC Cpt1a 1438156_PM_x_at” value (spleen, 100MMF-vs-Veh, 7 h) was 1.52 and the “FC Cul4a 1451971_PM_at” value (spleen, 100MMF-vs-Veh, 7 h) was 1.71. The “FC Cycs /// Gm10053 1456071_PM_a_at” value (spleen, 100MMF-vs-Veh, 7 h) was 1.64, the “FC D030056L22Rik 1455384_PM_x_at” value (spleen, 100MMF-vs-Veh, 7 h) was 1.60 and the “FC Dck 1439012_PM_a_at” value (spleen, 100MMF-vs-Veh, 7 h) was 1.59. For the same compound, the “FC Dck 1449176_PM_a_at” value (spleen, 100MMF-vs-Veh, 7 h) was 1.89, the “FC Dctn6 1416499_PM_a_at” value (spleen, 100MMF-vs-Veh, 7 h) was 1.53 and the “FC Dennd4a 1435975_PM_at” value (spleen, 100MMF-vs-Veh, 7 h) was 1.71. For the same compound, the “FC Ell2 1450744_PM_at” value (spleen, 100MMF-vs-Veh, 7 h) was 1.58, the “FC Elmo1 1424523_PM_at” value (spleen, 100MMF-vs-Veh, 7 h) was 1.52 and the “FC Gclm 1439050_PM_at” value (spleen, 100MMF-vs-Veh, 7 h) was 1.99.
